Assay results published in US8314140B2, “4-hydroxythiobenzamide derivatives of drugs” (Antibe Therapeutics Inc., priority 2006, dated 2012).

Key:
visceral pain perception = test: Rat model of visceral pain perception (colorectal distension, AWR score); format: in vivo
Description: A rat model of visceral pain perception, a pre-clinical model of irritable bowel syndrome, was used in the following example. Rats (male, Wistar, 200-250 g, obtained from Charles River, Monza, Italy), were housed in plastic cages and maintained under controlled conditions with 12-hours light/dark cycle with lights on at 7.00 AM. Tap water and standard laboratory chow were freely available. Before experiments, rats were individually trained by spending 2-3 hours per day in a plexiglass cage for 2-3 days. It allowed them to adjust to a movement-restriction environment. Food was withheld for 12 hours before colorectal distension (CRD) recording were performed. Experiments were performed in awake rats and were conducted in a blind manner in that the observer was not aware of the identity of drug administered to each animal.
In the testing day, rats were sedated with ether inhalation and a 2 cm long latex balloon was inserted intrarectally 2 cm from the anal verge and fixed at the base of the tail. The balloon was connected via a double-barreled cannula to a pressure transducer to continuously monitoring the rectal pressure by a computer (PowerLab PC, A.D. Instruments, Milford, Mass., USA) and to a syringe for inflation/deflation of the balloon. The rats were then housed in a small cage (20×8×8 cm) on an elevated Plexiglas™ platform and allowed to wake up and adapt for 1 hour. After recovery from sedation, animals underwent the CRD procedure and behavioral responses were tested. The night before the experiments, the balloons were inflated and left overnight so the latex stretched and the balloons became compliant.
CRD of 20 seconds, performed every 5 minutes, was applied in increment of 0.4 ml starting from 0.4 ml up to 1.6 ml water. To achieve an accurate measurement of the colonic parameters and perception, the distensions were repeated twice for each intensity and data for each animal were averaged for analysis. Each animal underwent a double set of CRD. Twenty minutes after the first sequence of CRD (0.4 mL-1.6 ml water), drugs were administered intraperitoneally (i.p.) and a second set of CRD was performed. Behavioral responses during the first and the second set of CRD were assessed and compared.
Behavioral response to CRD was assessed by measuring the abdominal withdrawal reflex (AWR) using a semiquantitative score (1).
A rat model of visceral pain perception as described above was used to compare pain perception scores for 5-amino-2-(4-thiocarbamoyl-phenoxycarbonyloxy)-benzoic acid (Compound XXVII) with or without glibenclamide, an inhibitor of ATP-sensitive K^+ (KATP) channels.
Experiments were carried out as described in Example 13, except that groups of 5 rats each were treated with vehicle, trimebutine maleate (10 mg/kg), or with equimolar doses of trimebutine thiocarbamoylbenzoate (Compound III) or thiocarbamolybenzoate alone.

gastric damage = test: Incidence of gastric damage at end of the leukocyte adherence experiment; conditions: for percent incidence of gastric damage compared to the parent drug alone: comment on Table 2; for Percent Incidence of Gastric Damage: intragastric 30 μmol/kg (naproxen and Compound XX 60 μmol/kg), end of experiment
Excerpt: (§1) Briefly, post-capillary mesenteric venules in anestheitized rats are examined under a light microscope.

[1] = system: leukocyte adherence to the vascular endothelium; test: Leukocyte adherence after NSAID or derivative, intravital microscopy (Example 21); format: in vivo, rat; conditions: comment on Table 2
Excerpt: as §1

[2] = H2S generation in buffer and liver homogenate (Example 15); format: in vitro ADME, rat; conditions: 1 mM compound, FIG. 6
Description: (Compound XXVII) was tested for H2S generation under three different conditions. Concentrations of H2S that were generated within 1 hour from 1 mM concentrations of L-cysteine, 4-HBT (4-hydroxythiobenzamide) and 5-amino-2-(4-thiocarbamoyl-phenoxycarbonyloxy)-benzoic acid were measured. H2S release was tested under three conditions: (i) when the compound was in buffer, (ii) when the compound was in a liver homogenate, and (iii) when the compound was in the liver homogenate together with an inhibitor of cystathionine γ-lyase (PAG=DL-propargylglycine; 2 mM). Results are shown in FIG. 6. *p<0.05 compared to the release from the vehicle group. ^ψp>0.05 versus the corresponding ‘homogenate’ group. The enzymatic capacity for H2S production was determined using the same reactor as described previously (Khan et al. (1980) Microchem J 25: 388-395, incorporated herein by reference). Two ml of an assay reaction mixture was introduced in the reactor. The mixture contained 1 mM L-cysteine (or compound), 2 mM pyridoxal 5′-phosphate, 100 mM potassium phosphate buffer (pH=7.4). A constant stream of nitrogen was passed through the mixture via gas-inlet capillary. Reactions were initiated by transferring the tubes from ice bath to a 37° C. water bath. The stream of nitrogen carried the sulfide acid in the second reactor containing 4 ml of sulfide anti-oxidant buffer (SAOB) solution, consisting of 2M KOH, 1M salicylic acid and 0.22M ascorbic acid at pH 12.8[5]. After incubating at 37° C. for 90 minutes, 1 ml of 10% trichloroacetic acid solution was added to mixture to stop the reaction. The remainder H2S in the mixture was carried out via nitrogen stream by other 60 minutes of incubation at 37° C. The concentration of sulfide in SAOB solution was measured with a sulfide sensitive electrode (Model 9616 S^2−/Ag^+ electrode, Orion Research, Beverly, Mass., USA). For studies in which the test compounds were incubated in liver homogenate, 100-150 mg of isolated rat livers were homogenized in 1 ml of ice-cold T-PER protein extractor. The homogenates were added to the reaction mixture at a concentration of 10% (wt/vol). DL-propargylglycine 2 mM was incubated with liver homogenates for 5 min at 37° C. prior the enzyme reaction. Khan, S. U. Morris, G. F. and Hidiroglou, M. (1980) Rapid estimation of sulfide in rumen and blood with a sulfide-specific ion electrode. Microchem J. 25:388-395, incorporated herein by reference.

SMILES | percent incidence of gastric damage compared to the parent drug alone (gastric damage) | Percent Incidence of Gastric Damage (gastric damage) [%] | number of adherent leukocytes compared to the parent drug alone [1] | melting point [°C] | further results
CCC(COC(=O)c1cc(OC)c(OC)c(OC)c1)(c1ccccc1)N(C)C.NC(=S)c1ccc(C(=O)O)cc1 (stereo not drawn) [trimebutine thiocarbamoylbenzoate, 3,4,5-trimethoxybenzoic acid 2-(dimethylamino)-2-phenylbutyl ester 4-thiocarbamoyl benzoate] |  |  |  |  | perception score (AWR Score) (visceral pain perception; doses equimolar to trimebutine maleate 10 mg/kg, FIG. 7): more effective than either trimebutine maleate or thiocarbamoylbenzoate in reducing visceral pain
COc1ccc(Cl)cc1C(=O)NCCc1ccc(S(=O)(=O)NC(=O)NC2CCCCC2)cc1 [glibenclamide, reference compound] |  |  |  |  | pain perception score after glibenclamide pretreatment (visceral pain perception; 0.8 mL colorectal distention, glibenclamide 10 mg/kg i.p. 30 min before, FIG. 3): did not affect the pain perception
CC(=O)Oc1ccccc1C(=O)Oc1ccc(C(N)=S)cc1 [Compound XVI, 2-Acetoxy-benzoic acid 4-thiocarbamoyl-pheny ester] | significantly reduced the percent incidence of gastric damage | 0 | significantly reduced the number of adherent leukocytes | 154 to 156 | 
Cc1ccc(Nc2c(F)cccc2Cl)c(CC(=O)Oc2ccc(C(N)=S)cc2)c1 [Compound XVIII, 4-thiocarbamoylphenyl 2-(2-(2-chloro-6-fluorophenylamino)-5-methylphenyl)acetate] | no incidences of gastric damage | 0 | significantly reduced the number of adherent leukocytes | 120 to 122 | 
N[C@@H](CS)C(=O)O [L-cysteine, reference compound] |  |  |  |  | H2S generation in buffer ([2]; buffer pH 7.4, 37° C.): did not release significant H2S; H2S generation in liver homogenate with PAG ([2]; liver homogenate plus DL-propargylglycine 2 mM): markedly inhibited by PAG
